# Laboratory results taken from patent publication US20090099177A1, “PYRIDYL COMPOUNDS” (priority 2006, published 2009).
# Counter-ions that a name gives are not always drawn.
# What was measured:
# human EP1 receptor = target: T1, human EP1 receptor (Homo sapiens, UniProt P34995); assay: human EP1 calcium mobilisation assay; assay type: cell-based; conditions: for Ki: human EP1, CHO-K1 cells, antagonism of PGE2, averages of a number of experiments, read-out: functional pKi value (converted); for IC50: human EP1 calcium mobilisation assay, read-out: pIC50 values (converted)
# T1 construct: expressed in transfected cells; host or cells: CHO-K1
# T1 sequence (P34995 1-402): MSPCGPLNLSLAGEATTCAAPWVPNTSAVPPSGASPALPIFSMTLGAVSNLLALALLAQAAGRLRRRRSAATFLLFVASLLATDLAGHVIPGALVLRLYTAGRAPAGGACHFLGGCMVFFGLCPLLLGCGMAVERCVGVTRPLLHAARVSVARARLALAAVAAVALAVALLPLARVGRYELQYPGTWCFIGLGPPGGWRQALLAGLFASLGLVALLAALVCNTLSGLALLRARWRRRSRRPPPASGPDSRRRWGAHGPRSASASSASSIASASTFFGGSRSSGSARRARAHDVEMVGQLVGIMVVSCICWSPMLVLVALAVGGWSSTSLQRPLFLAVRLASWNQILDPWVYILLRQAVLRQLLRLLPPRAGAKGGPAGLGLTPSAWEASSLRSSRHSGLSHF
# Experimental: Briefly, the antagonist properties of compounds are assessed by their ability to inhibit the mobilisation of intracellular calcium ([Ca^2+]i) in response to activation of EP1 or EP3 receptors by the natural agonist hormone prostaglandin E2 (PGE2). Increasing concentrations of antagonist reduce the amount of calcium that a given concentration of PGE2 can mobilise. The net effect is to displace the PGE2 concentration-effect curve to higher concentrations of PGE2. The amount of calcium produced is assessed using a calcium-sensitive fluorescent dye such as Fluo-4, AM and a suitable instrument such as a Fluorimetric Imaging Plate Reader (FLIPR). Increasing amounts of [Ca^2+]i produced by receptor activation increase the amount of fluorescence produced by the dye and give rise to an increasing signal. The signal may be detected using the FLIPR instrument and the data generated may be analysed with suitable curve-fitting software.
# The human EP1 or EP3 calcium mobilisation assay (hereafter referred to as ‘the calcium assay’) utilises Chinese hamster ovary-K1 (CHO-K1) cells into which a stable (pCIN; BioTechniques 20 (1996): 102-110) vector containing either EP1 or EP3 cDNA has previously been transfected. Cells are cultured in suitable flasks containing culture medium such as DMEM:F-12 supplemented with 10% v/v foetal calf serum, 2 mM L-glutamine, 0.25 mg/ml geneticin, 100 μM flurbiprofen and 10 μg/ml puromycin.
# For assay, cells are harvested using a proprietary reagent that dislodges cells such as Versene. Cells are re-suspended in a suitable quantity of fresh culture media for introduction into a 384-well plate. Following incubation for 24 hours at 37° C. the culture media is replaced with a medium containing Fluo-4 and the detergent pluronic acid, and a further incubation takes place. Concentrations of compounds are then added to the plate in order to construct concentration-effect curves. This may be performed on the FLIPR in order to assess the agonist properties of the compounds. Concentrations of PGE2 are then added to the plate in order to assess the antagonist properties of the compounds.
# The data so generated may be analysed by means of a computerised curve-fitting routine. The concentration of compound that elicits a half-maximal inhibition of the calcium mobilisation induced by PGE2 (pIC50) may then be estimated.
# [1] = target: T2, human prostanoid EP1 receptor (Homo sapiens, UniProt P34995); assay: Binding assay for the human prostanoid EP1 receptor (competition with [3H]-PGE2); conditions: [3H]-PGE2 competition, human EP1, CHO-K1 membranes; averages of a number of experiments; read-out: pIC50 value (converted)
# T2 construct: expressed in transfected cells; host or cells: CHO-K1 (membrane fraction)
# T2 sequence (P34995 1-402): T1 sequence (P34995 1-402)
# Experimental: Competition assay using [^3H]-PGE2.
# Compound potencies are determined using a radioligand binding assay. In this assay compound potencies are determined from their ability to compete with tritiated prostaglandin E2 ([^3H]-PGE2) for binding to the human EP1 receptor.
# This assay utilises Chinese hamster ovary-K1 (CHO-K1) cells into which a stable vector containing the EP1 cDNA has previously been transfected. Cells are cultured in suitable flasks containing culture medium such as DMEM:F-12 supplemented with 10% v/v foetal calf serum, 2 mM L-glutamine, 0.25 mg/ml geneticin, 10 μg/ml puromycin and 10 μM indomethacin.
# Cells are detached from the culture flasks by incubation in calcium and magnesium free phosphate buffered saline containing 1 mM disodium ethylenediaminetetraacetic acid (Na2EDTA) and 10 μM indomethacin for 5 min. The cells are isolated by centrifugation at 250×g for 5mins and suspended in an ice cold buffer such as 50 mM Tris, 1 mM Na2EDTA, 140 mM NaCl, 10 μM indomethacin (pH 7.4). The cells are homogenised using a Polytron tissue disrupter (2×10 s burst at full setting), centrifuged at 48,000×g for 20mins and the pellet containing the membrane fraction is washed (optional) three times by suspension and centrifugation at 48,000×g for 20mins. The final membrane pellet is suspended in an assay buffer such as 10 mM 2-[N-morpholino]ethanesulphonic acid, 1 mM Na2EDTA, 10 mM MgCl2 (pH 6). Aliquots are frozen at −80° C. until required.
# For the binding assay the cell membranes, competing compounds and [^3H]-PGE2 (3 nM final assay concentration) are incubated in a final volume of 100 μl for 30 min at 30° C. All reagents are prepared in assay buffer. Reactions are terminated by rapid vacuum filtration over GF/B filters using a Brandell cell harvester. The filters are washed with ice cold assay buffer, dried and the radioactivity retained on the filters is measured by liquid scintillation counting in Packard TopCount scintillation counter.
# The data are analysed using non linear curve fitting techniques to determine the concentration of compound producing 50% inhibition of specific binding (IC50).
Compound,Ki (human EP1 receptor) [µM],further results
"CC(C)COc1ccc(Cl)cc1Cc1cccc(-c2nc3cnc4ccccc4c3[nH]2)n1 [Example 24, 2-[6-({5-Chloro-2-[(2-methylpropyl)oxy]phenyl}methyl)-2-pyridinyl]-1H-imidazo[4,5-c]quinoline hydrochloride]",≤ 0.316,–
"Fc1ccc2nc(-c3cccc(Cc4cc(Cl)ccc4OCc4ccccc4)n3)[nH]c2c1F [Example 40, 2-[6-({5-Chloro-2-[(phenylmethyl)oxy]phenyl}methyl)-2-pyridinyl]-4,5-difluoro-1H-benzimidazolehydrochloride]",–,IC50 (human EP1 receptor): > 10 µM
"Fc1cccc2[nH]c(-c3cccc(Cc4cc(Cl)ccc4OCc4ccccc4)n3)nc12 [Example 32, 2-[6-({5-Chloro-2-[(phenylmethyl)oxy]phenyl}methyl)-2-pyridinyl]-4-fluoro-1H-benzimidazolehydrochioride]",≤ 10,–
"CC(C)COc1ccc(Cl)cc1Cc1cccc(-c2ncc[nH]2)n1 [Example 42, 2-({5-Chloro-2-[(2-methylpropyl)oxy]phenyl}methyl)-6-(1H-imidazol-2-yl)pyridine]",–,IC50 [1]: ≤ 0.1 µM
"O=C(Nc1ccccn1)c1cccc(Cc2cc(Cl)ccc2OCc2ccccc2)n1 [Example 6, 6-({5-Chloro-2-[(phenylmethyl)oxy]phenyl}methyl)-N-2-pyridinyl-2-pyridinecarboxamide]",–,IC50 (human EP1 receptor): > 10 µM
"O=C(Nc1cccc(Cc2cc(Cl)ccc2OCc2ccccc2)n1)c1ccccc1 [Example 3, N-[6-({5-Chloro-2-[(phenylmethyl)oxy]phenyl}methyl)-2-pyridinyl]benzamide]",≤ 0.316,–
"CC(C)COc1ccc(Cl)cc1Cc1cccc(NC(=O)c2ccc(CN3CCCCC3)cc2)n1 [Example 47, N-[6-({5-Chloro-2-[(2-methylpropyl)oxy]phenyl}methyl)-2-pyridinyl]-4-(1-piperidinylmethyl)benzamidehydrochloride]",≤ 10,–
"CN1CCN(c2ccc3nc(-c4cccc(Cc5cc(Cl)ccc5OCc5ccccc5)n4)[nH]c3c2)CC1 [Example 26, 2-[6-({5-Chloro-2-[(phenylmethyl)oxy]phenyl}methyl)-2-pyridinyl]-5-(4-methyl-1-piperazinyl)-1H-benzimidazole Hydrochloride]",≤ 10,–
"O=C(Nc1cccc(Cc2cc(Cl)ccc2OCc2ccccc2)n1)c1cccnc1 [Example 16, N-[6-({5-Chloro-2-[(phenylmethyl)oxy]phenyl}methyl)-2-pyridinyl]-3-pyridinecarboxamide]",–,IC50 (human EP1 receptor): > 10 µM
"CC(C)COc1ccc(Cl)cc1Cc1cccc(-c2nc3ccc(CN4CCCCC4)cc3[nH]2)n1 [Example 50, 2-[6-({5-Chloro-2-[(2-methylpropyl)oxy]phenyl}methyl)-2-pyridinyl]-5-(1-piperidinylmethyl)-1H-benzimidazole hydrochloride]",≤ 10,–
"CC(C)COc1ccc(Cl)cc1Cc1cccc(NC(=O)c2ccc(CN3CCOCC3)cc2)n1 [Example 45, N-[6-({5-Chloro-2-[(2-methylpropyl)oxy]phenyl}methyl)-2-pyridinyl]-4-(4-morpholinylmethyl)benzamide Hydrochloride]",≤ 0.316,–
"Clc1ccc(OCc2ccccc2)c(Cc2cccc(-c3nc4cnccc4[nH]3)n2)c1 [Example 38, 2-[6-({5-Chloro-2-[(phenylmethyl)oxy]phenyl}methyl)-2-pyridinyl]-1H-imidazo[4,5-c]pyridinehydrochloride]",≤ 0.316,–
"O=C(NCc1ccccn1)c1cccc(Cc2cc(Cl)ccc2OCc2ccccc2)n1 [Example 7, 6-({5-Chloro-2-[(phenylmethyl)oxy]phenyl}methyl)-N-(2-pyridinylmethyl)-2-pyridinecarboxamide]",≤ 0.316,–
"CC(C)COc1ccc(Cl)cc1Cc1cccc(NC(=O)c2ccc(CN3CCCC3)cc2)n1 [Example 46, N-[6-({5-Chloro-2-[(2-methylpropyl)oxy]phenyl}methyl)-2-pyridinyl]-4-(1-pyrrolidinylmethyl)benzamidehydrochloride]",≤ 10,–
"O=C(NCc1ccccc1)c1cccc(Cc2cc(Cl)ccc2OCc2ccccc2)n1 [Example 11, 6-({5-Chloro-2-[(phenylmethyl)oxy]phenyl}methyl)-N-(phenylmethyl)-2-pyridinecarboxamide]",–,IC50 (human EP1 receptor): > 10 µM
"O=C(Nc1cccc(Cc2cc(Cl)ccc2OCc2ccccc2)n1)C1CCCO1 (stereo not drawn) [Example 17, N-[6-({5-Chloro-2-[(phenylmethyl)oxy]phenyl}methyl)-2-pyridinyl]tetrahydro-2-furancarboxamide]",–,IC50 [1]: ≤ 0.1 µM
"Fc1cc2nc(-c3cccc(Cc4cc(Cl)ccc4OCc4ccccc4)n3)[nH]c2cc1F [Example 37, 2-[6-({5-Chloro-2-[(phenylmethyl)oxy]phenyl}methyl)-2-pyridinyl]-5,6-difluoro-1H-benzimidazolehydrochloride]",–,IC50 (human EP1 receptor): > 10 µM
CC(C)COc1ccc(Cl)cc1Cc1cccc(NC(=O)c2ccc(CN3CCN(C)CC3)cc2)n1 [Example 48],≤ 10,–
"O=C(Cc1ccccc1)Nc1cccc(Cc2cc(Cl)ccc2OCc2ccccc2)n1 [Example 2, N-[6-({5-Chloro-2-[(phenylmethyl)oxy]phenyl}methyl)-2-pyridinyl]-2-phenylacetamide]",≤ 10,–
"O=C(Nc1ccccc1)c1cccc(Cc2cc(Cl)ccc2OCc2ccccc2)n1 [Example 10, 6-({5-Chloro-2-[(phenylmethyl)oxy]phenyl}methyl)-N-phenyl-2-pyridinecarboxamide]",–,IC50 (human EP1 receptor): > 10 µM
"CN(C)Cc1ccc(NC(=O)c2cccc(Cc3cc(Cl)ccc3OCc3ccc(Cl)cc3F)n2)cc1 [Example 53, 6-[(5-Chloro-2-{[(4-chloro-2-fluorophenyl)methy]oxy}phenyl)methyl]-N-{4-[(dimethylamino)methyl]phenyl}-2-pyridinecarboxamide]",–,IC50 [1]: ≤ 0.1 µM
"O=C(Nc1cccc(Cc2cc(Cl)ccc2OCc2ccccc2)n1)C1CCOC1 (stereo not drawn) [Example 18, N-[6-({5-Chloro-2-[(phenylmethyl)oxy]phenyl}methyl)-2-pyridinyl]tetrahydro-3-furancarboxamide]",–,IC50 [1]: ≤ 0.1 µM
"CC(C)(C)OC(=O)Nc1cccc(Cc2cc(Cl)ccc2OCc2ccc(Cl)cc2F)n1 [Example 60, 1,1-Dimethylethyl {6-[(5-chloro-2-{[(4-chloro-2-fluoronhenyl)methyl]oxy}phenyl)methyl]-2-pyridinyl}carbamate]",≤ 10,–
"NC(=O)c1cccc(Cc2cc(Cl)ccc2OCc2ccc(Cl)cc2F)n1 [Example 63, 6-[(5-Chloro-2-{[(4-chloro-2-fluorophenyl)methyl]oxy}phenyl)methyl]-2-pyridinecarboxamide]",≤ 10,–
